Experimental data published in ChEMBL document CHEMBL1201862, “PubChem BioAssay data set” (2004).
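These data come from cells grown in 96-well plates and exposed to compound for 48 hours at five concentrations. GI50 marks 50% less growth.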 Calls of active or inactive are those of the source. Cut-off read from the data, not from the text of the source: active = GI50 up to about 1.1 µM and inactive = higher.

Tests used:
Experiment in all cases: NCI-60 cell line screen, 48 h
[1] = test system: SK-MEL-2
[2] = test system: COLO 205
[3] = test system: OVCAR-4
[4] = test system: A549
[5] = test system: CCRF-CEM
[6] = test system: UACC-62
[7] = test system: DU-145
[8] = test system: OVCAR-8
[9] = test system: Malme-3M
[10] = test system: IGROV-1
[11] = test system: NCI-H23
[12] = test system: A498
[13] = test system: HCT-15
[14] = test system: MDA-MB-231
[15] = test system: PC-3
[16] = test system: SK-MEL-28
[17] = test system: Hs-578T
[18] = test system: HL-60
[19] = test system: SNB-19
[20] = test system: RPMI-8226
[21] = test system: SF-295
[22] = test system: SR
[23] = test system: NCI-H522
[24] = test system: UACC-257
[25] = test system: SW-620
[26] = test system: TK-10
[27] = test system: BT-549
[28] = test system: SK-OV-3
[29] = test system: CAKI-1
[30] = test system: HOP-92
[31] = test system: KM12
[32] = test system: SN12C
[33] = test system: MOLT-4
[34] = test system: HT-29
[35] = test system: U-251
[36] = test system: HOP-62
[37] = test system: HCT-116
[38] = test system: SK-MEL-5
[39] = test system: OVCAR-5
[40] = test system: ACHN
[41] = test system: SF-539
[42] = test system: MCF7
[43] = test system: M14
[44] = test system: MDA-N
[45] = test system: T47D
[46] = test system: NCI/ADR-RES
[47] = test system: RXF 393
[48] = test system: SF-268
[49] = test system: NCI-H460
[50] = test system: EKVX
[51] = test system: MDA-MB-435
[52] = test system: K562
[53] = test system: LOX IMVI
[54] = test system: NCI-H226
[55] = test system: OVCAR-3
[56] = test system: SNB-75
[57] = test system: UO-31

CC1(C)COC(/C=C/C2=NC(C)(C)CO2)=N1
GI50 [1]: 26.5 µM (inactive)
GI50 [2]: 14.4 µM (inactive)
GI50 [3]: 24.7 µM (inactive)
GI50 [4]: 42.9 µM (inactive)
GI50 [5]: 7.59 µM (inactive)
GI50 [6]: 15.1 µM (inactive)
GI50 [7]: 13 µM (inactive)
GI50 [8]: 20.3 µM (inactive)
GI50 [9]: 17.5 µM (inactive)
GI50 [10]: 18.5 µM (inactive)
GI50 [11]: 23.2 µM (inactive)
GI50 [12]: 0.0401 µM (active)
GI50 [13]: 15.1 µM
GI50 [14]: 19.7 µM (inactive)
GI50 [15]: 17.5 µM (inactive)
GI50 [16]: 17.6 µM (inactive)
GI50 [17]: < 0.01 µM (active)
GI50 [18]: 20.1 µM (inactive)
GI50 [19]: 68.5 µM (inactive)
GI50 [20]: 10 µM (inactive)
GI50 [21]: 42.2 µM (inactive)
GI50 [22]: 4.44 µM (inactive)
GI50 [23]: 2.77 µM (inactive)
GI50 [24]: 29.6 µM (inactive)
GI50 [25]: 12.7 µM (inactive)
GI50 [26]: 11.3 µM (inactive)
GI50 [27]: 23.1 µM (inactive)
GI50 [28]: > 100 µM (inactive)
GI50 [29]: 5.89 µM (inactive)
GI50 [30]: 25 µM (inactive)
GI50 [31]: 13.9 µM (inactive)
GI50 [32]: 1.95 µM (inactive)
GI50 [33]: 12.6 µM (inactive)
GI50 [34]: 21.2 µM (inactive)
GI50 [35]: 21.1 µM (inactive)
GI50 [36]: 18.9 µM (inactive)
GI50 [37]: 10.6 µM (inactive)
GI50 [38]: 14 µM (inactive)
GI50 [39]: 20.4 µM (inactive)
GI50 [40]: 17.4 µM (inactive)
GI50 [41]: 22 µM (inactive)
GI50 [42]: 15.9 µM (inactive)
GI50 [43]: 14.7 µM (inactive)
GI50 [44]: 20.1 µM (inactive)
GI50 [45]: 8.75 µM (inactive)
GI50 [46]: 26.1 µM (inactive)
GI50 [47]: 16.3 µM (inactive)
GI50 [48]: 24.3 µM (inactive)
GI50 [49]: 67 µM (inactive)
GI50 [50]: 16.9 µM (inactive)
GI50 [51]: 23.7 µM (inactive)
GI50 [52]: 18.2 µM (inactive)
GI50 [53]: 3.25 µM (inactive)
GI50 [54]: 20.9 µM (inactive)
GI50 [55]: 12.4 µM (inactive)
GI50 [56]: > 100 µM (inactive)
GI50 [57]: 18.6 µM (inactive)
